Assay: Cytotoxicity assay (AlamarBlue) in mock infected MT-2 cells
Type: cell-based
Conditions: human
Summary of the method: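 MT-2 cells at 2×10^4 cells/well, mock-infected, treated with 3-fold serial compound dilutions for 96 h at 37 °C. AlamarBlue added for 3 h, fluorescence read at 545/590 nm; % inhibition versus solvent control fitted to a 4-parameter logistic to give CC50.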

SMILES	CC50 at 96 h [µM]
COc1cc2c(cc1OCc1ccccc1)CCNC2/C=C/c1ccccc1C(=O)O (centres unmarked) [ES, 2-[(E)-2-[6-(benzyloxy)-7-methoxy-1,2,3,4-tetrahydroisoquinolin-1-yl]ethenyl]benzoic acid]	10
CCOC(=O)c1ccccc1/C=C/C1NCCc2cc(OCc3ccccc3)c(OC)cc21 (centres unmarked) [ET, ethyl 2-[(E)-2-[6-(benzyloxy)-7-methoxy-1,2,3,4-tetrahydroisoquinolin-1-yl]ethenyl]benzoate]	9.9
COc1ccc(CCC2NCCc3cc(OC)c(OC)cc32)cc1OC (centres unmarked) [Example A, 1-[2-(3,4-Dimethoxyphenyl)ethyl]-6,7-dimethoxy-1,2,3,4-tetrahydroisoquinoline]	> 10
CCc1cc(OC)c(OCc2ccccc2)cc1/C=C/C1NCCc2cc(OCc3ccccc3)c(OC)cc21 (centres unmarked) [Example AA, 6-benzyloxy-1-[(E)-2-(5-benzyloxy-2-ethyl-4-methoxy-phenyl)vinyl]-7-methoxy-1,2,3,4-tetrahydroisoquinoline]	3.89
COc1cc(Cl)c(/C=C/C2NCCc3cc(OCc4ccccc4)c(OC)cc32)cc1OCc1ccccc1 (centres unmarked) [Example AC, 6-benzyloxy-1-[(E)-2-(5-benzyloxy-2-chloro-4-methoxy-phenyl)vinyl]-7-methoxy-1,2,3,4-tetrahydroisoquinoline]	1.9
COc1cc2c(cc1OCc1ccccc1)CCNC2/C=C/c1cc(OCc2ccccc2)ccc1C (centres unmarked) [Example AD, 6-benzyloxy-1-[(E)-2-(5-benzyloxy-2-methyl-phenyl)vinyl]-7-methoxy-1,2,3,4-tetrahydroisoquinoline]	3.22
COc1cc(C)c(/C=C/C2=NCCc3cc(OCc4ccccc4)c(OC)cc32)cc1OCc1ccccc1 [Example AE, 6-benzyloxy-1-[(E)-2-(5-benzyloxy-4-methoxy-2-methyl-phenyl)vinyl]-7-methoxy-3,4-dihydroisoquinoline]	33.5
COc1ccc(/C=C/C2NCCc3cc(OCc4ccccc4)c(OC)cc32)c(C)c1 (centres unmarked) [Example AG, 6-benzyloxy-7-methoxy-1-[(E)-2-(4-methoxy-2-methyl-phenyl)vinyl]-1,2,3,4-tetrahydroisoquinoline]	9.83
COc1cc(C)c(/C=C/C2NCCc3cc(OCc4ccccc4)c(OC)cc32)cc1OC (centres unmarked) [Example AH, 6-benzyloxy-1-[(E)-2-(4,5-dimethoxy-2-methyl-phenyl)vinyl]-7-methoxy-1,2,3,4-tetrahydroisoquinoline]	2.4
COCCCCOc1cc(OC)ccc1/C=C/C1NCCc2cc(OCc3ccccc3)c(OC)cc21 (centres unmarked) [Example AI, (E)-6-(benzyloxy)-7-methoxy-1-(4-methoxy-2-(4-methoxybutoxy)styryl)-1,2,3,4-tetrahydroisoquinoline]	5.6
COc1cc2c(cc1OCc1ccccc1)CCNC2/C=C/c1ccc(OC(F)(F)F)cc1C (centres unmarked) [Example AJ, (E)-6-(benzyloxy)-7-methoxy-1-(2-methyl-4-(trifluoromethoxy)styryl)-1,2,3,4-tetrahydroisoquinoline]	5
COc1cc2c(cc1OCc1ccccc1)CCNC2/C=C/c1ccnn1C (centres unmarked) [Example AK, 6-benzyloxy-7-methoxy-1-[(E)-2-(2-methylpyrazol-3-yl)vinyl]-1,2,3,4-tetrahydroisoquinoline]	10
CCn1cc(/C=C/C2NCCc3cc(OCc4ccccc4)c(OC)cc32)cn1 (centres unmarked) [Example AL, 6-Benzyloxy-1-[(E)-2-(1-ethylpyrazol-4-yl)vinyl]-7-methoxy-1,2,3,4-tetrahydroisoquinoline]	24.2
COc1cc2c(cc1OCc1ccccc1)CCNC2/C=C/c1cc(OC)c(OC)c(OC)c1 (centres unmarked) [Example AM, 6-Benzyloxy-7-methoxy-1-[(E)-2-(3,4,5-trimethoxyphenyl)vinyl]-1,2,3,4-tetrahydroisoquinoline]	6
COc1cc2c(cc1OCc1ccccc1)CCNC2/C=C/c1ccc(OC)c2occc12 (centres unmarked) [Example AN, 6-Benzyloxy-7-methoxy-1-[(E)-2-(7-methoxybenzofuran-4-yl)vinyl]-1,2,3,4-tetrahydroisoquinoline]	3.7
COc1cc2c(cc1OCc1ccccc1)CCNC2/C=C/c1ccc(OC)c2ccoc12 (centres unmarked) [Example AO, 6-Benzyloxy-7-methoxy-1-[(E)-2-(4-methoxybenzofuran-7-yl)vinyl]-1,2,3,4-tetrahydroisoquinoline]	9.94
COc1ccc(/C=C/C2c3cc(OC)c(OCc4ccccc4)cc3CCN2C(=O)c2cnccn2)cc1OCc1ccccc1 (centres unmarked) [Example B, [6-Benzyloxy-1-[(E)-2-(3-benzyloxy-4-methoxy-phenyl)vinyl]-7-methoxy-3,4-dihydro-1H-isoquinolin-2-yl]-pyrazin-2-yl-methanone]	5
COc1cc2c(cc1OC)C(/C=C/c1cc(OCc3ccccc3)c(OC)cc1C)NCC2 (centres unmarked) [Example C, 1-[(E)-2-(5-Benzyloxy-4-methoxy-2-methyl-phenyl)vinyl]-6,7-dimethoxy-1,2,3,4-tetrahydroisoquinoline]	11
CCCCN1CCc2cc(OC)c(OCc3ccccc3)cc2C1/C=C/c1ccc(OCc2ccccc2)c(OC)c1 (centres unmarked) [Example D, 7-Benzyloxy-1-[(E)-2-(4-benzyloxy-3-methoxy-phenyl)vinyl]-2-butyl-6-methoxy-3,4-dihydro-1H-isoquinoline]	> 10
COc1cc(C)c(/C=C/C2c3cc(OC)c(OCc4ccccc4)cc3CCN2C)cc1OCc1ccccc1 (centres unmarked) [Example E, 6-Benzyloxy-1-[(E)-2-(5-benzyloxy-4-methoxy-2-methyl-phenyl)vinyl]-7-methoxy-2-methyl-3,4-dihydro-1H-isoquinoline]	7.17
CCCCN1CCc2cc(OCc3ccccc3)c(OC)cc2C1/C=C/c1ccc(OC)c(OCc2ccccc2)c1 (centres unmarked) [Example G, 6-Benzyloxy-1-[(E)-2-(3-benzyloxy-4-methoxy-phenyl)vinyl]-2-butyl-7-methoxy-3,4-dihydro-1H-isoquinoline]	5
COc1cc(C(C)(C)C)c(/C=C/C2NCCc3cc(OCc4ccccc4)c(OC)cc32)cc1OCc1ccccc1 (centres unmarked) [Example J, 6-Benzyloxy-1-[(E)-2-(5-benzyloxy-2-tert-butyl-4-methoxy-phenyl)vinyl]-7-methoxy-1,2,3,4-tetrahydroisoquinoline]	5.36
COC(=O)N1CCc2cc(OCc3ccccc3)c(OC)cc2C1/C=C/c1ccc(OC)c(OCc2ccccc2)c1 (centres unmarked) [Example L, Methyl 6-benzyloxy-1-[(E)-2-(3-benzyloxy-4-methoxy-phenyl)vinyl]-7-methoxy-3,4-dihydro-1H-isoquinoline-2-carboxylate]	> 20
COc1cc(C)c(/C=C/C2c3cc(OC)c(OCc4ccccc4)cc3CCN2C(=O)NC(C)(C)C)cc1OCc1ccccc1 (centres unmarked) [Example O, 6-benzyloxy-1-[(E)-2-(5-benzyloxy-4-methoxy-2-methyl-phenyl)vinyl]-N-tert-butyl-7-methoxy-3,4-dihydro-1H-isoquinoline-2-carboxamide]	> 10
COc1cc(C)c(CCC2NCCc3cc(OCc4ccccc4)c(OC)cc32)cc1OCc1ccccc1 (centres unmarked) [Example Q, 6-benzyloxy-1-[2-(5-benzyloxy-4-methoxy-2-methyl-phenyl)ethyl]-7-methoxy-1,2,3,4-tetrahydroisoquinoline]	5.15

Same assay, conditions: human; mock infected MT-2 cells, 96 hours, AlamarBlue; read-out: CC50

SMILES	CC50 at 96 h [µM]
COc1ccc(/C=C/C2NCCc3cc(OCc4ccccc4)c(OC)cc32)cc1OCc1ccccc1 (centres unmarked) [Example AB, 6-benzyloxy-1-[(E)-2-(3-benzyloxy-4-methoxy-phenyl)vinyl]-7-methoxy-1,2,3,4-tetrahydroisoquinoline]	3.96

— patent publication US9518022B2, “Anti-HIV compounds” (priority 2014, dated 2016)
